{
  "source": "patent US8785499B2",
  "about": "(priority 2009, dated 2014)",
  "data": [
    {"biological_target": "T1, ecNadD (Escherichia coli (strain K12), UniProt P0A752)", "assay": "biochemical", "assay_type": "biochemical", "conditions": "not given", "units": {"[…]. coli": "%"}, "values": [
      {"smiles": "O=S(=O)(Nc1ccc(Cl)cc1)c1ccc(Cl)s1", "note": "[compound 297]", "[…]. coli": 0},
      {"smiles": "CCn1c(CNc2ccc(F)cc2)nnc1SCC(N)=O", "note": "[compound 298]", "[…]. coli": 0},
      {"smiles": "COc1ccccc1OCc1nc(-c2ccc(Cl)cc2Cl)no1", "note": "[compound 299]", "[…]. coli": 0},
      {"smiles": "CC(=O)NS(=O)(=O)c1ccc(/N=C2\\C(=O)Nc3ccccc32)cc1", "note": "[compound 300]", "[…]. coli": 0},
      {"smiles": "C=CCNC(=O)c1cc(-c2ccc(Br)cc2)on1", "note": "[compound 301]", "[…]. coli": 0},
      {"smiles": "O=C(CCN1C(=O)c2ccccc2C1=O)NCc1ccncc1", "note": "[compound 302]", "[…]. coli": 0},
      {"smiles": "Clc1ccc(CNc2nc[nH]n2)cc1", "note": "[compound 305]", "[…]. coli": 0},
      {"smiles": "CSc1cccc(NS(=O)(=O)c2ccc(Cl)cc2)c1", "note": "[compound 306]", "[…]. coli": 0},
      {"smiles": "O=S(=O)(NCCc1ccccc1)c1ccc(Br)s1", "note": "[compound 307]", "[…]. coli": 0}
    ]},
    {"biological_target": "baNadD (Bacillus anthracis, UniProt C3L5T6)", "sequence (C3L5T6 whole entry, looked up)": "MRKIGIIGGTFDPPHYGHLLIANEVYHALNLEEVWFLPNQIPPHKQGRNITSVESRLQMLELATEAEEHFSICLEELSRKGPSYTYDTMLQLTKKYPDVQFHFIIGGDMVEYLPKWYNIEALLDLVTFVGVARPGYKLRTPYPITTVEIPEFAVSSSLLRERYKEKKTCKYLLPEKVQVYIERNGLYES", "assay": "biochemical", "assay_type": "biochemical", "conditions": "not given", "units": {"[…]. anthracis": "%"}, "values": [
      {"smiles": "O=S(=O)(Nc1ccc(Cl)cc1)c1ccc(Cl)s1", "note": "[compound 297]", "[…]. anthracis": 0},
      {"smiles": "CCn1c(CNc2ccc(F)cc2)nnc1SCC(N)=O", "note": "[compound 298]", "[…]. anthracis": 0},
      {"smiles": "COc1ccccc1OCc1nc(-c2ccc(Cl)cc2Cl)no1", "note": "[compound 299]", "[…]. anthracis": 1},
      {"smiles": "CC(=O)NS(=O)(=O)c1ccc(/N=C2\\C(=O)Nc3ccccc32)cc1", "note": "[compound 300]", "[…]. anthracis": 0},
      {"smiles": "C=CCNC(=O)c1cc(-c2ccc(Br)cc2)on1", "note": "[compound 301]", "[…]. anthracis": 0},
      {"smiles": "O=C(CCN1C(=O)c2ccccc2C1=O)NCc1ccncc1", "note": "[compound 302]", "[…]. anthracis": 0},
      {"smiles": "Clc1ccc(CNc2nc[nH]n2)cc1", "note": "[compound 305]", "[…]. anthracis": 0},
      {"smiles": "CSc1cccc(NS(=O)(=O)c2ccc(Cl)cc2)c1", "note": "[compound 306]", "[…]. anthracis": 0},
      {"smiles": "O=S(=O)(NCCc1ccccc1)c1ccc(Br)s1", "note": "[compound 307]", "[…]. anthracis": 0}
    ]},
    {"biological_target": "baNadD (Bacillus anthracis, UniProt C3L5T6)", "assay": "biochemical", "assay_type": "biochemical", "conditions": "read-out: INHIBITION (%) B. anthracis", "units": {"inhibition at 50 µM": "%"}, "values": [
      {"smiles": "Nc1c(C(=O)Nc2cccc(F)c2)sc2nc(-c3cccs3)ccc12", "note": "[03_02]", "inhibition at 50 µM": 100},
      {"smiles": "Nc1c(C(=O)Nc2cccc(Cl)c2)sc2nc(-c3ccncc3)ccc12", "note": "[03_17]", "inhibition at 50 µM": 64}
    ]},
    {"test_system": "E. coli K-12 BW25113 (ΔnadA)", "assay": "microbe, parasite or virus in culture", "assay_type": "cell-based, Escherichia coli", "conditions": "not given", "values": [
      {"smiles": "Nc1c(C(=O)Nc2ccc(F)cc2Cl)sc2nc(-c3ccc(F)cc3)ccc12", "note": "[03_23]", "antibacterial activity against E. coli (qualitative)": "relatively strong antibacterial activity"}
    ]},
    {"test_system": "E. coli K-12 BW25113 (ΔnadA)", "assay": "microbe, parasite or virus in culture", "assay_type": "cell-based, Escherichia coli", "conditions": "Escherichia coli, BW25113, read-out: MIC50 E. coli", "units": {"MIC50": "µM"}, "values": [
      {"smiles": "O=C(CCC(=O)Nc1cccc(Cl)c1)N/N=C/c1c2ccccc2cc2ccccc12", "note": "[01_02]", "MIC50": "> 80"},
      {"smiles": "O=C(CCCC(=O)Nc1ccc(Br)cc1)N/N=C/c1c2ccccc2cc2ccccc12", "note": "[01_03]", "MIC50": "> 80"},
      {"smiles": "Nc1c(C(=O)Nc2cccc(F)c2)sc2nc(-c3cccs3)ccc12", "note": "[03_02]", "MIC50": 160},
      {"smiles": "Nc1c(C(=O)Nc2cc(Cl)ccc2Cl)sc2nc(-c3cccs3)ccc12", "note": "[03_05]", "MIC50": 80},
      {"smiles": "Nc1c(C(=O)Nc2ccc(Cl)cc2F)sc2nc(-c3cccs3)ccc12", "note": "[03_15]", "MIC50": 160},
      {"smiles": "Nc1c(C(=O)Nc2cccc(Cl)c2)sc2nc(-c3ccncc3)ccc12", "note": "[03_17]", "MIC50": 80},
      {"smiles": "Nc1c(C(=O)Nc2ccc(F)cc2Cl)sc2nc(-c3ccc(F)cc3)ccc12", "note": "[03_23]", "MIC50": 40},
      {"smiles": "COC(=O)c1ccc(N/C=C2\\C(=O)Nc3ccccc32)cc1", "note": "[15_11]", "MIC50": "< 100"}
    ]},
    {"test_system": "B. subtilis 168", "assay": "microbe, parasite or virus in culture", "assay_type": "cell-based", "conditions": "Bacillus subtilis, 168, read-out: MIC50 B. subt", "units": {"MIC50": "µM"}, "values": [
      {"smiles": "O=C(CCCC(=O)Nc1ccc(Br)cc1)N/N=C/c1c2ccccc2cc2ccccc12", "note": "[01_03]", "MIC50": 10},
      {"smiles": "Nc1c(C(=O)Nc2cccc(F)c2)sc2nc(-c3cccs3)ccc12", "note": "[03_02]", "MIC50": 40},
      {"smiles": "Nc1c(C(=O)Nc2cc(Cl)ccc2Cl)sc2nc(-c3cccs3)ccc12", "note": "[03_05]", "MIC50": 10},
      {"smiles": "Nc1c(C(=O)Nc2ccc(Cl)cc2F)sc2nc(-c3cccs3)ccc12", "note": "[03_15]", "MIC50": 10},
      {"smiles": "Nc1c(C(=O)Nc2cccc(Cl)c2)sc2nc(-c3ccncc3)ccc12", "note": "[03_17]", "MIC50": "> 160"},
      {"smiles": "Nc1c(C(=O)Nc2ccc(F)cc2Cl)sc2nc(-c3ccc(F)cc3)ccc12", "note": "[03_23]", "MIC50": 80},
      {"smiles": "COC(=O)c1ccc(N/C=C2\\C(=O)Nc3ccccc32)cc1", "note": "[15_11]", "MIC50": "< 50"}
    ]},
    {"test_system": "B. anthracis sterne", "assay": "microbe, parasite or virus in culture", "assay_type": "cell-based", "conditions": "Bacillus anthracis, read-out: MIC50 B. anth", "units": {"MIC50": "µM"}, "values": [
      {"smiles": "O=C(CCCC(=O)Nc1ccc(Br)cc1)N/N=C/c1c2ccccc2cc2ccccc12", "note": "[01_03]", "MIC50": 15},
      {"smiles": "Nc1c(C(=O)Nc2cccc(F)c2)sc2nc(-c3cccs3)ccc12", "note": "[03_02]", "MIC50": 80},
      {"smiles": "Nc1c(C(=O)Nc2cc(Cl)ccc2Cl)sc2nc(-c3cccs3)ccc12", "note": "[03_05]", "MIC50": 10},
      {"smiles": "Nc1c(C(=O)Nc2ccc(Cl)cc2F)sc2nc(-c3cccs3)ccc12", "note": "[03_15]", "MIC50": 10},
      {"smiles": "Nc1c(C(=O)Nc2cccc(Cl)c2)sc2nc(-c3ccncc3)ccc12", "note": "[03_17]", "MIC50": "> 160"},
      {"smiles": "Nc1c(C(=O)Nc2ccc(F)cc2Cl)sc2nc(-c3ccc(F)cc3)ccc12", "note": "[03_23]", "MIC50": 80}
    ]},
    {"test_system": "E. coli ΔnadA, nadD+ (overexpressing NadD)", "assay": "Antibacterial assay: on-target versus off-target activity (NadD overexpression vs gapA control)", "assay_type": "cell-based, Escherichia coli", "conditions": "E. coli overexpressing nadD vs gapA control strain", "values": [
      {"smiles": "O=C(CCCC(=O)Nc1ccc(Br)cc1)N/N=C/c1c2ccccc2cc2ccccc12", "note": "[01_03]", "effect of NadD overexpression on antibacterial activity (on-target vs off-target)": "partially or totally suppresses action"},
      {"smiles": "Nc1c(C(=O)Nc2ccc(Cl)cc2F)sc2nc(-c3cccs3)ccc12", "note": "[03_15]", "effect of NadD overexpression on antibacterial activity (on-target vs off-target)": "partially or totally suppresses action"}
    ]},
    {"biological_target": "T1, ecNadD", "assay": "biochemical", "conditions": "substrate ATP varied, 0.5 mM NaMN fixed, apparent value", "units": {"Ki": "µM"}, "values": [
      {"smiles": "O=C(CCC(=O)Nc1cccc(Cl)c1)N/N=C/c1c2ccccc2cc2ccccc12", "note": "[01_02]", "Ki": "5 ± 1"}
    ]},
    {"biological_target": "T1, ecNadD", "assay": "biochemical", "conditions": "substrate NaMN varied, 0.5 mM ATP fixed, apparent value", "units": {"Ki": "µM"}, "values": [
      {"smiles": "O=C(CCC(=O)Nc1cccc(Cl)c1)N/N=C/c1c2ccccc2cc2ccccc12", "note": "[01_02]", "Ki": "8 ± 3"}
    ]}
  ]
}
